US9181265B2, “Substituted 2,3-dihydro-1H-benzo[a]pyrano[2,3-c]phenazines as anti-angiogenic and anti-cancer agents” (UNIVERSITE CATHOLIQUE DE LOUVAIN, priority 2010, dated 2015)
Where two headings read alike, the source gives them in different places. Marks after values point to notes of the source that are not given here. Values belong to the molecule of their own block, whether it stands above or below them.

Tests used:
LoVo = test: MTT test of overall cell growth, LoVo colorectal cancer cells, normoxia or hypoxia; type: cell-based, human; conditions: for Selectivity: IC50 (normoxia)/IC50 (hypoxia 1% O2), if u.t.d., ratio of activity at 100 μM
Protocol: (§1) MTT tests were performed in order to rapidly, i.e. within 3 days, measure the effect of compounds of this invention on the overall cell growth. The test measured the number of metabolically active living cells that were able to transform the yellow product 3-(4,5-dimethylthiazol-2-yl)-2,5-diphenyl tetrazolium bromide (herein referred as MTT) into the blue product formazan dye by mitochondrial reduction. The amount of formazan obtained at the end of the experiment, measured by means of a spectrophotometer (Plate Reader Victor X4 Microplate reader (Perkin Elmer), is directly proportional to the number of living cells. Optical density determination thus enabled a quantitative measurement of the effect of the investigated compounds under control conditions (normoxia) as compared to the hypoxic conditions (0.1 or 1% O2) and/or untreated conditions.
(§2) Human umbilical vein endothelial cells (HUVEC) and six human cancer cell lines were used in the MTT tests. These cancer cell lines cover five histological cancer types including cervix (SiHa), breast (MCF-7 and MDA-MB231), prostate (PC3), glioma (U373), and colorectal (LoVo) cancers.
(§3) To perform the assay, cells were allowed to grow in 96-well microplates with a flat bottom following addition of an amount of 100 μl of cell suspension per well with 4,500 cells/well. Each cell line was seeded in its appropriate culture medium. HUVEC were cultured in a specific endothelial cell growth medium (ECACC, Sigma); SiHa cells in Glutamax-containing DMEM with 4.5 g/1 glucose (Invitrogen) supplemented with 10% Foetal Bovine Serum (PAA) and 1% penicillin+streptomycin mix (Invitrogen); MCF-7, MDA-MB-231, PC3, and LoVo cells in Glutamax-containing RPMI supplemented with 10% Foetal Bovine Serum (PAA) and 1% penicillin+streptomycin mix (Invitrogen) and U373 cells in Glutamax-containing DMEM (Invitrogen) with 5% Foetal Bovine Serum (PAA) and 1% penicillin+streptomycin mix (Invitrogen).
(§4) The detailed experimental procedure was the following: after a 24-hour period of incubation at 37° C., the culture medium was replaced by 100 μl of fresh medium in which the tested compound was previously dissolved, at the following concentrations: 10^−8 M, 5.10^−8, 10^−7, 5.10^−7, 10^−6, 5.10^−6, 10^−5, 5.10^−5 and 10^−[…]. Each experiment was performed in sestuplicates (6 times).
(§5) Cells were then incubated under normoxia in a Binder incubator (the O2 level corresponding to the concentration in the ambient air), or in a Ruskin hypoxia workstation under either 0.1% O2 (v/v) or 1% O2 (v/v). Under both conditions, the atmosphere was humidified and the CO2 concentration was fixed at 5 vol. %.
(§6) After 72 hours of incubation at 37° C. under normoxic or hypoxic conditions, with or without the compound to be tested, the medium was replaced by 100 μl of HBSS (without phenol red) containing MTT at a concentration of 0.5 or 1 mg/ml. The micro-wells were subsequently incubated during 3 hours and a half at 37° C. and centrifuged at 1300 rpm during 10 minutes. Medium was removed and formazan crystals formed were dissolved in 100 μl DMSO. The micro-wells were shaken for 5 minutes and read on a spectrophotometer at wavelengths of 570 nm (maximal formazan absorbance).
(§7) For each experimental condition, the mean optical density was calculated, allowing the determination of the percentage of living cells in comparison to the control.

U373 = test: MTT test of overall cell growth, U373 glioma cells, normoxia or hypoxia; type: cell-based, human; conditions: for Selectivity: U373, IC50 (normoxia)/IC50 (hypoxia 1% O2), if u.t.d., ratio of activity at 100 μM
Protocol: as §1, §2, §3, §4, §5, §6, §7

MCF-7 = test: MTT test of overall cell growth, MCF-7 breast cancer cells, normoxia or hypoxia; type: cell-based, human; conditions: for Selectivity: MCF-7, IC50 (normoxia)/IC50 (hypoxia 1% O2), if u.t.d., ratio of activity at 100 μM
Protocol: as §1, §2, §3, §4, §5, §6, §7

PC3 = test: MTT test of overall cell growth, PC3 prostate cancer cells, normoxia or hypoxia; type: cell-based, human
Protocol: as §1, §2, §3, §4, §5, §6, §7

MDA-MB-231 = test: MTT test of overall cell growth, MDA-MB-231 breast cancer cells, normoxia or hypoxia; type: cell-based, human; conditions: for Selectivity: MDA-MB-231, IC50 (normoxia)/IC50 (hypoxia 1% O2), if u.t.d., ratio of activity at 100 μM
Protocol: as §1, §2, §3, §4, §5, §6, §7

[1] = test system: Human umbilical vein endothelial cells (HUVEC); test: MTT test of overall cell growth, endothelial cells, normoxic or hypoxic conditions; type: cell-based; conditions: for Selectivity: if u.t.d., ratio of activity at 100 μM
Protocol: as §1, §2, §3, §4, §5, §6, §7

siHa = test: MTT test of overall cell growth, SiHa cervix cancer cells, normoxia or hypoxia; type: cell-based, human; conditions: for Selectivity: IC50 (normoxia)/IC50 (hypoxia 1% O2), if u.t.d., ratio of activity at 100 μM
Protocol: as §1, §2, §3, §4, §5, §6, §7

[2] = Homo sapiens, hypoxia 1% O2, 72 h, read-out: IC50 (μM) Hypoxia 1% O2
[3] = IC50 (normoxia)/IC50 (hypoxia 0.1%)
[4] = IC50 (normoxia)/IC50 (hypoxia 1%)
[5] = hypoxia 1% O2, 72 h, read-out: IC50 (μM) Hypoxia 1% O2
[6] = normoxia, 72 h, read-out: IC50 (μM) Normoxia

IC50 (LoVo; [2]): 154 µM
IC50 (LoVo; Homo sapiens, normoxia, 72 h, read-out: IC50 (μM) Normoxia): 116 µM
IC50 (U373; Homo sapiens, U373 MG, U373, hypoxia 1% O2, 72 h, read-out: IC50 (μM) Hypoxia 1% O2): 113 µM
IC50 (μM) Normoxia (U373; U373, normoxia, 72 h): u.t.d.
IC50 (MCF-7; Homo sapiens, MCF7, MCF-7, hypoxia 1% O2, 72 h, read-out: IC50 (μM) Hypoxia 1% O2): 91.2 µM
IC50 (μM) Normoxia (MCF-7; MCF-7, normoxia, 72 h): u.t.d.
IC50 (μM) Hypoxia 1% O2 (PC3; PC3, hypoxia 1% O2, 72 h): u.t.d.
IC50 (μM) Normoxia (PC3; PC3, normoxia, 72 h): u.t.d.
IC50 (MDA-MB-231; Homo sapiens, MDA-MB-231, hypoxia 1% O2, 72 h, read-out: IC50 (μM) Hypoxia 1% O2): 126 µM
IC50 (μM) Normoxia (MDA-MB-231; MDA-MB-231, normoxia, 72 h): u.t.d.
IC50 (siHa; [2]): 92.1 µM
IC50 (μM) Normoxia (siHa; normoxia, 72 h): u.t.d.
Compound: COc1ccc(CNC(=O)c2ccc3nc4c(nc3c2)c2c(c3ccccc34)OC(C)(C)[C@H]3CC[C@H](C)C[C@H]23)c(OC)c1 [Compound 16′]
Selectivity (LoVo): 0.76
Selectivity (U373): >1.54^b
Selectivity (MCF-7): >1.91^b
Selectivity (MDA-MB-231): >1.38^b
IC50 ([1]; Homo sapiens, 72 h, hypoxia 0.1% O2, 72 h, read-out: IC50 (μM) Hypoxia 0.1%): 0.21 µM
IC50 ([1]; Homo sapiens, 72 h, hypoxia 1% O2, 72 h, read-out: IC50 (μM) Hypoxia 1%): 7.96 µM
IC50 ([1]; Homo sapiens, 72 h, normoxia, 72 h, series compared with hypoxia 0.1%, read-out: IC50 (μM) Normoxia): 16.7 µM
IC50 ([1]; Homo sapiens, 72 h, normoxia, 72 h, series compared with hypoxia 1%, read-out: IC50 (μM) Normoxia): 120 µM
Selectivity [1, 3]: 80
Selectivity [1, 4]: 15
Selectivity (siHa): >1.89^b

Compound: C[C@H]1CC[C@H]2[C@H](C1)c1c(c3ccccc3c3nc4cc(C(=O)N[C@@H](CO)Cc5ccccc5)ccc4nc13)OC2(C)C [Compound 17]
Selectivity (LoVo): 1.04
IC50 (LoVo; [5]): 9.47 µM
IC50 (LoVo; [6]): 9.83 µM
IC50 (U373; U373, hypoxia 1% O2, 72 h, read-out: IC50 (μM) Hypoxia 1% O2): 1.23 µM
IC50 (U373; U373, normoxia, 72 h, read-out: IC50 (μM) Normoxia): 6.97 µM
Selectivity (U373): 5.65
IC50 (MCF-7; MCF-7, hypoxia 1% O2, 72 h, read-out: IC50 (μM) Hypoxia 1% O2): 11.1 µM
IC50 (MCF-7; MCF-7, normoxia, 72 h, read-out: IC50 (μM) Normoxia): 12.2 µM
Selectivity (MCF-7): 1.10
IC50 (PC3; PC3, hypoxia 1% O2, 72 h, read-out: IC50 (μM) Hypoxia 1% O2): 11.1 µM
IC50 (PC3; PC3, normoxia, 72 h, read-out: IC50 (μM) Normoxia): 10.4 µM
Selectivity (PC3; PC3, IC50 (normoxia)/IC50 (hypoxia 1% O2), if u.t.d., ratio of activity at 100 μM): 0.94
IC50 (MDA-MB-231; MDA-MB-231, hypoxia 1% O2, 72 h, read-out: IC50 (μM) Hypoxia 1% O2): 11.4 µM
IC50 (MDA-MB-231; MDA-MB-231, normoxia, 72 h, read-out: IC50 (μM) Normoxia): 13.4 µM
Selectivity (MDA-MB-231): 1.17
Selectivity [1, 3]: 134
Selectivity [1, 4]: 8
IC50 ([1]; hypoxia 0.1% O2, 72 h, read-out: IC50 (μM) Hypoxia 0.1%): 0.05 µM
IC50 ([1]; hypoxia 1% O2, 72 h, read-out: IC50 (μM) Hypoxia 1%): 0.63 µM
IC50 ([1]; normoxia, 72 h, series compared with hypoxia 0.1%, read-out: IC50 (μM) Normoxia): 6.25 µM
IC50 ([1]; normoxia, 72 h, series compared with hypoxia 1%, read-out: IC50 (μM) Normoxia): 5.18 µM
Selectivity (siHa): 7.12
IC50 (siHa; [5]): 10.5 µM
IC50 (siHa; [6]): 75 µM
